# Results: US20220213524A1, “KINASE SCREENING ASSAYS” (University of Newcastle upon Tyne, priority 2019, published 2022)
# How the values were obtained:
# Format in all cases: cell-based
# INCENP S446ph [1] = assay: Immunofluorescence microscopy and high content imaging of INCENP S446ph after acute kinase inhibition in nocodazole-arrested mitotic cells; conditions: nocodazole-arrested mitotic HeLa cells, MG132 included
# From the text: (§1) To confirm that Cyclin B1-Cdk1 was a bona fide kinase for INCENP S446, the inventors first conducted in vitro kinase assays. Indeed, Cyclin B1-Cdk1 efficiently phosphorylated S446 on a recombinant INCENP fragment containing residues 369-583, but not the TSS motif (S893/S894) in recombinant INCENP residues 825-918. In contrast, Aurora B was able to phosphorylate its known target, the TSS motif of INCENP, but not S446 (FIG. 4B). Furthermore, INCENP immunoprecipitated from nocodazole-arrested mitotic cells was recognized by the INCENP S446ph antibody, and this phosphorylation was sensitive to the Cdk inhibitor Roscovitine (FIG. 14). However, determining the direct substrates of Cyclin B1-Cdk1 in cells is complicated because inhibition of Cdk1 prevents mitotic entry and/or forces mitotic exit, leading to indirect effects on multiple kinase substrates. […] Aurora B relocates to the spindle midzone at the end of mitosis so, as an additional way to focus on cells still in mitosis, the inventors analyzed only cells in which Aurora B remained on chromosomes. […] Also consistent with Cyclin B1-Cdk1 being the kinase responsible, INCENP S446ph was detected on chromosomes in mitotic cells from early mitosis until metaphase when Cyclin B1-Cdk is active, but was lost at anaphase when Cyclin B is degraded (FIG. 4D). […]
# INCENP TSSph = assay: Immunofluorescence microscopy and high content imaging of INCENP TSSph after acute kinase inhibition in nocodazole-arrested mitotic cells; conditions: over 9 minutes; nocodazole-arrested mitotic HeLa cells, MG132 included
# From the text: as §1
# INCENP S446ph [2] = assay: INCENP immunoprecipitation from nocodazole-arrested mitotic HeLa 1C8 cells and immunoblotting with INCENP S446ph antibody; conditions: 100 μM, 2 h, with 20 μM MG132; nocodazole-arrested mitotic HeLa 1C8 cells; immunoblot
# Experimental: HeLa 1C8 cells (Dai et al., 2005) were treated with 0.5 μg/ml nocodazole for 8 h. After collecting mitotic cells by “shake off” and replating, either 100 μM Roscovitine or DMSO (vehicle control) was added together with 20 μM MG132 in the continued presence of nocodazole. After 2 h, cell lysates were prepared in 50 mM Tris, 0.3 M NaCl, 0.5% Triton X-100, 10 mM MgCl2, 5 mM EDTA, 1 mM dithiothreitol, 1 mM PMSF, 0.1 μM okadaic acid, 10 mM NaF, 20 mM β-glycerophosphate, 0.25 U/μl benzonase nuclease, cOmplete™ Mini EDTA-free Protease Inhibitor and subjected to immunoprecipitation with rabbit anti-INCENP and Dynabeads Protein G (ThermoFisher). After washing, bound proteins were eluted by boiling in SDS-PAGE sample buffer.
# SDS-PAGE was carried out using the NuPAGE Bis-Tris system (ThermoFisher). Proteins were transferred onto PVDF membranes using standard techniques. Membranes were blocked with 2.5% milk in PBS, 0.1% Tween20 for 1 h, then with primary antibodies in 2.5% milk, PBS, 0.1% Tween20 overnight at 4° C. After washing 3 times with PBS, 0.1% Tween20, they were incubated for 1 h with secondary antibodies in 2.5% milk, PBS, 0.1% Tween20, washed three times with PBS, 0.1% Tween20 and once with PBS, before development using ECL substrate (Pierce) and exposure to X-ray film. Stripping of immunoblots was carried out with Restore Western Blot Stripping Buffer (ThermoFisher).
structure (smiles),measurement,setting,value
O=C1NC(=NCc2cccs2)S/C1=C\c1ccc2ncccc2c1 [RO-3306],reduction in intensity of INCENP S446ph,"INCENP S446ph [1]; over 9 minutes, only cells with Aurora B on chromosomes",50%
same,effect on INCENP TSSph (Aurora B phosphorylation site),INCENP TSSph,unaffected
CC[C@H](CO)Nc1nc(NCc2ccccc2)c2ncn(C(C)C)c2n1 [Roscovitine],sensitivity of INCENP S446 phosphorylation to inhibitor,INCENP S446ph [2],sensitive
COc1cc2c(Nc3ccc(NC(=O)c4ccccc4)cc3)ncnc2cc1OCCCN1CCOCC1 [ZM447439],effect on INCENP S446ph,INCENP S446ph [1]; over the same time period (9 minutes),did not influence
same,effect on INCENP TSSph (Aurora B phosphorylation site),INCENP TSSph,rapid decline
